# Assay results taken from PMC11744575 (Advanced Science, 2024).
# T1: recombinant human PPARγ protein (Homo sapiens, UniProt P37231)
# T1 construct: purchased Sino Biotechnology, Beijing, China
# T1 sequence (P37231 1-505): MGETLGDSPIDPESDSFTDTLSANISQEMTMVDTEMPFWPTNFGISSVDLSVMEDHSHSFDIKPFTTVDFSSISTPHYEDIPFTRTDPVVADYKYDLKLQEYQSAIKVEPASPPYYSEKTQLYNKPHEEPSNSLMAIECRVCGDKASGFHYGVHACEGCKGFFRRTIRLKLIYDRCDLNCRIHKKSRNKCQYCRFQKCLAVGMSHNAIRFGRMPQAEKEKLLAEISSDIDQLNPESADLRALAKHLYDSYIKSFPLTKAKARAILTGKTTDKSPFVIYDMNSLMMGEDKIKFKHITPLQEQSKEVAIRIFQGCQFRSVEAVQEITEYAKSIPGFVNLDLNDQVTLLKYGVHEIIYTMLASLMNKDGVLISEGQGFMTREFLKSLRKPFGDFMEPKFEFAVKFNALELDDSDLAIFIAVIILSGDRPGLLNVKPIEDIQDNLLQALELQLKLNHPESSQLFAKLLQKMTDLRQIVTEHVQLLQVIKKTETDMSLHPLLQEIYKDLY
# Legend:
# [1] = test system: primary hepatocytes; assay: Intracellular triglyceride content and BODIPY staining in primary hepatocytes; format: cell-based, mouse; conditions: for effect of co-incubation on triglyceride levels within BBR-treated hepatocytes: co-incubation with BBR in the presence of OA
# Method: To establish an in vitro model of hepatic steatosis, hepatocytes were treated with 0.2 mM oleic acid (OA, O7501, Sigma‐Aldrich) for 16 h. OA was pre‐incubated with 10% bovine serum albumin (BSA, Sigma‐Aldrich) (1:4) for 1 h and then added to the cell culture medium along with different compounds.
# Primary hepatocytes were washed three times with phosphate‐buffered saline (PBS) and then subjected to three repeated freeze‐thaw cycles. The released intracellular triglyceride content was then measured using a commercial assay kit (Jiancheng). Protein content was used for normalization.
# The lipid droplets in the hepatocytes in 6‐well plates were visualized by first washing the cells and then immersing them in a serum‐free medium. Subsequently, […] BODIPY 493/503 (Sigma‐Aldrich) was added to the medium, and the cells were incubated for 20 min for staining, followed by imaging with confocal microscopy (Olympus, Tokyo, Japan).
# [2] = test system: db/db mice; assay: 4-week administration in db/db mice (liver injury, steatosis, glucose profiles); format: in vivo, mouse
# [3] = BBR metabolism kinetics with liver S9 fractions; format: in vitro ADME, mouse; conditions: for Km at 2 h: mouse, liver S9 fraction
# Method: The incubations were carried out for 2 h at 37 °C in a 100 µL reaction volume containing the pooled liver S9 fraction (7.5 mg·mL^−1) and an NADPH‐regenerating system consisting of MgCl2 (40 mM), glucose‐6‐phosphate (40 µM), NADP^+ (8 µM), and glucose 6‐phosphate dehydrogenase (4 U·mL^−1). The reactions were terminated by the addition of 300 µL of ice‐cold acetonitrile containing the internal standard (chlorophenylalanine), followed by rigorous mixing and centrifugation. The supernatants were subsequently analyzed by LC‐MS/MS, employing methodologies detailed in previous publications.^[ [27] ^]
# (§1) Briefly, proteins in the samples were precipitated with three volumes of methanol containing an internal standard (chlorophenylalanine). After centrifugation at 30 000 g for 10 min at 4 °C, the supernatant was injected into the LC‐MS/MS system for analysis. Chromatographic separation was conducted using a ZORBAX 300SB C18 column (100 × 2.1 mm, 3.5 µm, Agilent, CA, USA) at 40 °C on a Shimadzu HPLC system.
# [4] = test system: obese mice models; parameters: method as in PMID 29526820; conditions: no comparable liver damage in healthy lean mice; cited from earlier work
# [5] = target: T1, recombinant human PPARγ protein; assay: MicroScale Thermophoresis (MST) of rosiglitazone binding with/without BBR; conditions: rosiglitazone affinity in presence/absence of BBR
# [6] = test system: peroxisome proliferator‐activated receptor alpha (PPARα); parameters: method as in PMID 18274627; conditions: cited from earlier work
# [7] = test system: peroxisome proliferator‐activated receptor gamma (PPARγ); parameters: method as in PMID 18274627; conditions: cited from earlier work
# [8] = Pharmacokinetic profile of BBR and 6-OH-BBR in db/db and lean mice (plasma, liver); format: in vivo, mouse
# Method: Briefly, blood samples (50 µL) were collected at different time points post‐drug administration (no more than three collections per mouse), centrifuged at 4 °C and 8000 g for 5 min, and the upper plasma layer was collected. At 2 and 24 h post‐dosing, the mice were sacrificed, and liver tissues were collected for cryopreservation and prepared as homogenates (W/V: 0.1 g·mL^−1) for drug concentration determinations.
# as §1
# [9] = test system: Primary cultured mouse hepatocytes; assay: Cell viability (CCK8) cytotoxicity assay; format: cell-based
# Excerpt: C) BODIPY staining in different groups; images are shown under 600× or 1800× magnification, scale bar = 100 µm. D) Flow scheme of RNA sequencing.
# Primary hepatocytes were isolated from the livers of 6‐week‐old male C57BL/6J mice as previously described.^[ [25] ^] Briefly, the liver was thoroughly digested by injection of type IV collagenase (C4‐BIOC, Sigma‐Aldrich, Louis, MO, USA) via the portal vein. The perfused liver was excised, dispersed, and filtered through a 70 µm filter, and the digestion was terminated by adding cold Dulbecco's modified Eagle's medium (DMEM, #11 960 044, Gibco, Grand Island, NY, USA). The cell suspension was centrifuged at 4 °C at 50 g for 5 min to remove the supernatant and debris. An equal volume of DMEM and Percoll (CAS 65455‐52‐9, Sigma‐Aldrich) was then mixed thoroughly and centrifuged at 50 g for 15 min at 4 °C. The viable cell layer at the bottom was collected and further centrifuged in DMEM to prepare the cell seeding plate. Cells were seeded in a 6‐well plate at a density of 1 × 10^6 cells per well and cultured in DMEM medium supplemented with 10% fetal bovine serum (FBS, Gibco) at 37 °C in a 5% CO2 incubator.
# [10] = test system: livers of healthy rats; parameters: method as in PMID 1701930; conditions: up to 102 weeks of treatment; cited from earlier work
# [11] = test system: PPARγ target genes; assay: qPCR of PPARγ target genes in primary hepatocytes; format: cell-based, mouse; conditions: co-incubation with BBR
# Method: Tissues or cells were lysed using TRIzol (#1 218 355, Invitrogen, Thermo Fisher Scientific, MA, USA) for subsequent RNA extraction through a series of steps involving chloroform extraction and isopropanol and ethanol precipitation. Reverse transcription and cDNA synthesis were performed using a reverse transcription and cDNA synthesis kit (#639 506, Takara Bio Inc., Kusatsu, Shiga, Japan) to synthesize complementary DNA (cDNA) from […] of RNA. Quantitative real‐time PCR analysis was conducted utilizing SYBR Green pre‐mix (Q111‐02, Vazyme Biotech Co., Ltd, Nanjing, China) and subsequently analyzed employing the Roche real‐time PCR system. The mRNA expression levels were calculated and quantified utilizing the relative standard curve method and subsequently normalized to the expression of the housekeeping gene Gapdh. The primer sequences utilized for qPCR analysis are listed in Table S2 (Supporting Information).
# [12] = substrate: CC(=O)Nc1ccc(O)cc1; assay: Enzyme kinetic study in liver S9, Cyp1a2; format: in vitro ADME, mouse; conditions: 37.0 °C
# [13] = 25 mg·kg^−1 gavage once daily, 4 weeks
# [14] = db/db vs lean mice, single 20 mg·kg^−1 i.g.
# [15] = db/db mice compared to lean littermates after BBR 20 mg·kg^−1 i.g.
molecule,measurement,setting,value
Cc1ccc(Cn2nc(CCCc3ccc(OC(C)(C)C(=O)O)cc3)[nH]c2=O)cc1 [LY518674],effect of co-incubation on triglyceride levels within BBR-treated hepatocytes,[1],notable reduction
"CCc1oc2ccccc2c1C(=O)c1cc(Br)c(O)c(Br)c1 [BBR, Benzbromarone]","liver weight, serum transaminases, and creatinine levels",[2]; [13],increases
same,serum triglyceride and non-esterified fatty acid (NEFA) levels,[2]; [13],reductions
same,fasting plasma glucose levels,[2]; 4-week treatment,significantly decreased
same,glucose tolerance,[2]; 4-week treatment,improved
same,liver triglyceride levels,[2]; 4-week treatment,elevation
same,pyruvate tolerance and insulin sensitivity,[2]; 4-week treatment,diminished
same,metabolism catalyzed by liver S9 fractions,[3]; S9 from db/db mice compared to lean mice,marked reduction
same,Km at 2 h,"[3]; lean littermates of db/db mice, liver S9 from Lean mice",8.14 µg/mL
same,Km at 2 h,[3]; liver S9 from db/db mice,9.24 µg/mL
same,hepatic steatosis and liver injury,[4],specifically exacerbates
same,"lipid accumulation (intracellular triglyceride, BODIPY lipid droplets)","[1]; oleic acid (OA)-treated hepatocytes, 16 h",obviously enhanced
same,nature of BBR binding against the PPARγ agonist rosiglitazone (MST),[5],competitive
same,binding affinity for PPARα,[6],weak binding affinity
same,binding affinity for PPARγ,[7],weak binding affinity
same,liver concentration at 2 h post-administration,"[8]; db/db mouse livers vs lean littermates, 20 mg·kg^−1 i.g.",notably higher
same,decrease in clearance rate (CL),[8]; [14],42.5%
same,"increase in area under the curve (AUC), plasma",[8]; [14],1.75 fold
same,increase in mean residence time (MRT),[8]; [14],1.54 fold
same,increase in plasma half-life (T1/2),[8]; [14],2.03 fold
same,liver concentration at 24 h,"[8]; liver tissues of both groups (db/db and lean), 20 mg·kg^−1 i.g.",undetectable
same,cytotoxicity at dosages chosen for further experiments,[9]; 15 and 30 µM,non‐toxic
same,IC50,"[9]; Mus musculus, Hepatocyte, read-out: 50% inhibitory concentration (IC50), cell viability, 24 h incubation, CCK8",80.3 µM
same,hepatotoxicity in the livers of healthy rats,[10],negligible hepatotoxicity
CCC(=O)NC[C@H](Cc1ccc(OCCc2nc(-c3ccccc3)oc2C)cc1)N/C(C)=C\C(=O)c1ccc(C(F)(F)F)cc1 [GW6471],effect of co-incubation on triglyceride levels within BBR-treated hepatocytes,[1],failed to mitigate
"CCc1oc2cc(O)ccc2c1C(=O)c1cc(Br)c(O)c(Br)c1 [6‐OH‐BBR, 6‐hydroxy‐benzbromarone]","liver concentration at 24 h, db/db vs lean",[8]; [15],significantly higher
same,plasma concentration-time profile (metabolite production),[8]; [15],delayed production
O=C(Nc1ccncc1)c1cc([N+](=O)[O-])ccc1Cl [T0070907],effect of co-incubation on triglyceride levels within BBR-treated hepatocytes,[1],notable reduction
O=C(Nc1ccccc1)c1cc([N+](=O)[O-])ccc1Cl [GW9662],effect on BBR-mediated exacerbation of hepatic steatosis and liver injury,"[2]; 1 mg·kg^−1 i.p. with BBR, 4 weeks",markedly mitigated
same,effect of co-incubation on triglyceride levels within BBR-treated hepatocytes,[1],notable reduction
same,effect on BBR-induced upregulation of typical PPARγ target genes (mRNA),[11],significantly diminished
"Cyp1a2 (Mus musculus) (protein, liver S9 fractions from db/db mice or their lean littermates; from tissue; host or cells: pooled liver S9 fraction of db/db mice or lean littermates) MAFSQYISLAPELLLATAIFCLVFWMVRASRTQVPKGLKNPPGPWGLPFIGHMLTVGKNPHLSLTRLSQQYGDVLQIRIGSTPVVVLSGLNTIKQALVRQGDDFKGRPDLYSFTLITNGKSMTFNPDSGPVWAARRRLAQDALKSFSIASDPTSASSCYLEEHVSKEANHLVSKLQKAMAEVGHFEPVSQVVESVANVIGAMCFGKNFPRKSEEMLNIVNNSKDFVENVTSGNAVDFFPVLRYLPNPALKRFKTFNDNFVLFLQKTVQEHYQDFNKNSIQDITSALFKHSENYKDNGGLIPEEKIVNIVNDIFGAGFDTVTTAITWSILLLVTWPNVQRKIHEELDTVVGRDRQPRLSDRPQLPYLEAFILEIYRYTSFVPFTIPHSTTRDTSLNGFHIPKERCIYINQWQVNHDEKQWKDPFVFRPERFLTNNNSAIDKTQSEKVMLFGLGKRRCIGEIPAKWEVFLFLAILLQHLEFSVPPGVKVDLTPNYGLTMKPGTCEHVQAWPRFSK",Km,"[12]; other: Cyp1a2, pooled liver S9, Lean",45.8 µM
same,Km,"[12]; other: Cyp1a2, pooled liver S9, db/db",32.5 µM
